Test results: PubChem BioAssay AID493130 (Broad Institute, 2011)
Records with an inconclusive call do not appear. Activity calls are given as the source filed them.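 How the source made its calls: active means signal-lowering compounds whose fitted half-maximal concentration is at most ten times their highest tested dose; inconclusive means flat fit between -30 and -70%, or poor fit; inactive means flat within 30%, signal rising, or potency beyond limit.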

What follows are molecules tested against POS-1 (Caenorhabditis elegans) binding to mex-3 RNA (assay: inhibitors of POS-1/mex-3 RNA binding, dose response, counter-screen for MEX-5 RNA-binding inhibitor project, biochemical, fluorescence polarization, cherry-picked samples, set 2 (AID 493130;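 further: POS-1 as maltose binding protein fusion made in E. coli with FITC RNA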)). Details: POS-1/mex-3 RNA fluorescence polarization, 1 h.

| SMILES | AC50 |
| --- | --- |
| CC(=O)Nc1ccc2cc3ccc(NC(C)=O)cc3nc2c1 | 6.38 µM |
| COc1ccc(NC(=S)NNc2ccc(S(=O)(=O)Nc3ccccc3C(=O)O)cc2[N+](=O)[O-])cc1 | 4.53 µM |
| Cc1ccc(C)n1-c1ccccc1N | 5.78 µM |
| Cc1ccc(C)n1-c1sccc1C(=O)O | 6.08 µM |
| CN1CCN(c2ccc([N+](=O)[O-])c3no[n+]([O-])c23)CC1 | 3.3 µM |
| COc1ccc(Cn2c(O)c(/C=N/NC(=O)c3ccccc3O)c(=O)[nH]c2=O)cc1 | 6.22 µM |
| O=c1[nH]n2c(=O)c3c([nH]c2c1N=Nc1ccccc1)CCC3 | 0.677 µM |
| COc1ccc(/C(O)=C/c2nc3ccccc3n(-c3ccccc3)c2=O)cc1 | 3.23 µM |
| O=C(Nc1nc2c(s1)CN(Cc1ccccc1)CC2)c1cccc(S(=O)(=O)N2CCc3ccccc32)c1 | 7.79 µM |

Same assay, conditions: POS-1/mex-3 RNA fluorescence polarization, 1 h; at 10 µM (top of the series)

| SMILES | activity change, negative = inhibition |
| --- | --- |
| O=c1c2ccccc2c(C=Nc2ccc(O)cc2)c(O)n1-c1nccs1 | inactive |
| CS(=O)(=O)Nc1ccc(-c2ccc(/C=C3\SC(N)=NC3=O)o2)cc1 | inactive |
| COCC(C)N1CCC(Oc2cccc(C(=O)NCCc3ccccc3)c2)CC1 (stereo unspecified) | inactive |
| Cc1ccc(NC(=O)CCC(=O)NNC(=S)Nc2ccccc2)c(C)c1 | inactive |
| O=C(NC1CCSc2ccccc21)c1ccc([N+](=O)[O-])cc1 (stereo unspecified) | inactive |
| Cc1cc(/C=C2\C(=O)NC(=O)N(Cc3ccccc3)C2=O)c(C)n1-c1ccc(Cl)c(C(=O)O)c1 | inactive |
| COc1ccc2nc3ccccc3nc2c1NC(=O)c1ccc(Cl)cc1 | inactive |
| CCOC(=O)CCCc1sc(N)nc1-c1[nH]c(=O)[nH]c1C | inactive |
| COC(=O)c1ccc(N2NC(=O)/C(=C/c3ccc(-c4ccc(Cl)c(C(=O)O)c4)o3)C2=O)cc1 | inactive |
| COc1cc2c(cc1OC)-c1c(OC)c(OC)cc3c1C(C2)N(C)CC3 (stereo unspecified) | inactive |
| N#CC1=C(N)Oc2c(O)cc3ccccc3c2C1c1ccsc1 (stereo unspecified) | inactive |
| N#C/C(=C\c1cccc([N+](=O)[O-])c1)c1nnc2n1CCCCC2 | inactive |
| O=C(NC1CCSc2ccccc21)c1cccc(Br)c1 (stereo unspecified) | inactive |
| CC1=NN(C(N)=S)C(=O)C1N=Nc1ccccc1C (stereo unspecified) | inactive |
| O=C(O)c1cccc(NC(=S)N/N=C/c2c[nH]c3ccccc23)c1 | inactive |
| O=c1[nH]c(=O)n(Cc2ccccc2)c(O)c1/C=C1\C=Nc2ccccc21 | inactive |
| Cc1cccc(C)c1NC(=O)/C(C#N)=C/c1cccs1 | inactive |
| CCOC(=O)Cc1csc(NC(=O)c2sc3nc4ccc(C)cc4cc3c2N)n1 | inactive |
| CCc1ccc(S(=O)(=O)/N=C2\C=C(Nc3ccc(C(=O)O)cc3)C(=O)c3ccccc32)cc1 | inactive |
| COc1cc2c(cc1O)CC1c3c(cc(O)c(OC)c3-2)CCN1C (stereo unspecified) | inactive |
| CCOC(=O)c1c(-c2ccc(C)o2)csc1NC(=S)NC(=O)c1cccs1 | inactive |
| Cc1c(O)ccc(-c2[nH]ncc2-c2nc3ccccc3s2)c1O | inactive |
| COc1ccc2cc(/C=C3\SC(=S)NC3=O)c(N3CCOCC3)nc2c1 | inactive |
| COc1ccccc1C(=O)NNC(=O)c1csc(N2CCOCC2)n1 | inactive |

| SMILES | activity change, negative = inhibition |
| --- | --- |
| O=C(O)c1ccc2c(c1)C(=O)/C(=C/c1ccccc1)C2=O | inactive |
| CCc1cc(-c2n[nH]c(C)c2-c2nc3ccccc3s2)c(O)cc1OCC(=O)NN | inactive |
| COc1cc(C=C2C(=O)c3ccccc3C2=O)cc(OC)c1OC | inactive |
| CCOC(=O)CC1=C(C(=O)OCC)C(c2ccc(OC)cc2OC)C(C#N)=C(N)O1 (stereo unspecified) | inactive |
| COc1ccc(NCc2n[nH]c(=O)c3ccccc23)cc1 | inactive |
| Cn1c(O)c(/C=N/NC(=O)c2cc3ccccc3cc2O)c2ccccc21 | inactive |
| O=[N+]([O-])c1ccc(/C=N/n2c(CO)nc3ccccc32)s1 | inactive |
| CC(C)CN1CCN(Cc2cccc3ncccc23)CC1CCO (stereo unspecified) | inactive |
| CN1CN(C)c2ccc([N+](=O)[O-])c3cccc1c23 | inactive |
| Cc1cccc(NC(=O)CN2C(=O)S/C(=C\c3ccc(-c4cccc(C(=O)O)c4C)o3)C2=O)c1 | inactive |
| CC(=O)Nc1ccc(N=NC2C(=O)N(C(N)=S)N=C2C)cc1 (stereo unspecified) | inactive |
| Cc1cc(C)c2ccc(=S)[nH]c2n1 | inactive |
| CCCCn1c(N)c(N(Cc2ccccc2OC)C(=O)C(C)C)c(=O)[nH]c1=O | inactive |
| CSc1ccc(C(c2c(C(=O)O)[nH]c3ccccc23)c2c(C(=O)O)[nH]c3ccccc23)cc1 | inactive |
| CC(=O)Nc1ccc(/C=N/NC(=O)CNS(=O)(=O)c2ccccc2)cc1 | inactive |
| Cn1c(C2=C(O)CN(c3ccccc3)C2=N)nc2ccccc21 | inactive |
| Cc1ccc(S(=O)(=O)c2cc3c(=O)n4ccccc4nc3n(Cc3ccco3)c2=N)cc1C | inactive |
| COc1ccc(C2NC(=O)N(CCCC(=O)O)C(C)=C2C(=O)OCc2ccccc2)cc1 (stereo unspecified) | inactive |
| CN1CCN(c2nc(-c3ccccc3)nc(-c3ccccc3)c2C#N)CC1 | inactive |
| O=c1[nH]cnc2c1C(c1ccc(Cl)cc1)c1c(nc[nH]c1=O)O2 | inactive |
| C#CCOCCOCCOCCNc1nc(N2CCN(C(=O)[C@H]([C@@H](C)O)n3cc(CCCCN)nn3)CC2)nc(N2CCN(C(=O)[C@H](C)n3cc(CCCN=C(N)N)nn3)CC2)n1 | inactive |
| Cc1cc(=O)[nH]c(SCc2nc3ccc([N+](=O)[O-])cc3[nH]2)n1 | inactive |
| CNC(=O)c1c(NC(=O)c2nc3ccccc3s2)sc2c1CCC2 | inactive |
| O=C(N/N=C/c1cccnc1)c1ccc(O)cc1 | inactive |

| SMILES | activity change, negative = inhibition |
| --- | --- |
| O=C(O)c1ccc(NCc2cccnc2)cc1 | inactive |
| COC(=O)/C=C1/S/C(=N/NC(=O)c2ccc(Cl)cc2Cl)NC1=O | inactive |
| CC1CN2C(c3ccc([N+](=O)[O-])cc3)=CSC2=N1 (stereo unspecified) | inactive |
| Cc1c(C(=O)NNC(=S)Nc2ccc(S(N)(=O)=O)cc2)oc2ccccc12 | inactive |
| CC(C)c1ccc(N2C(=O)/C(=C/N(C)C)SC2=S)cc1 | inactive |
| O=C(CCN1C(=O)/C(=C\c2ccco2)SC1=S)Nc1ccc(C(=O)O)c(O)c1 | inactive |
| O=C(O)c1[nH]c2ccccc2c1C(c1cc(Br)ccc1O)c1c(C(=O)O)[nH]c2ccccc12 | inactive |
| O=[N+]([O-])c1ccc(O)c(C=Nc2ccc3c(c2)OCCO3)c1 | inactive |
| CC1=CC2=C(OC1N(C)C)c1cccc3cccc(c13)C2=O (stereo unspecified) | inactive |
| CCOC(=O)C1CSc2[nH]c(=O)sc2C1c1ccccc1 (stereo unspecified) | inactive |
| COc1cccc(-c2cn3nc4c(nc3n2)CCCC4)c1 | inactive |
| O=C1/C(=C\c2ccc(Br)o2)Cc2ccccc21 | inactive |
| CCCCNc1c(N)n(CCCC)c(=O)[nH]c1=O | inactive |
| NC1=C([N+](=O)[O-])C(c2ccc3c(c2)OCO3)C2=C(CCCC2=O)O1 (stereo unspecified) | inactive |
| CCN1C/C(=C/c2ccc(OC)c(O)c2)C(=O)/C(=C/c2ccc(OC)c(O)c2)C1 | inactive |
| CCOc1ccc(/C=C2/C(=O)N(c3ccc(OC)cc3)C(=S)N2CC(=O)OC)cc1OCC | inactive |
| O=C(O)CCSc1nc2ccccc2n1Cc1ccccc1 | inactive |
| CCC(=O)N(CC)C1=C(O)c2ccccc2C(=O)C1=O | inactive |
| CCCCN(C(=O)c1ccc([N+](=O)[O-])o1)c1c(N)n(CCCC)c(=O)[nH]c1=O | inactive |
| COc1cccc(NC(=S)NNC(=O)C(C)n2nc(C)c([N+](=O)[O-])c2C)c1 (stereo unspecified) | inactive |
| Cc1c(Br)c(=O)oc2c(Br)c(O)c(O)cc12 | inactive |
| Cc1cc(/C=C2\C(=O)NC(=O)N(c3cccc(F)c3)C2=O)c(C)n1-c1cc(C(=O)O)cc(C(=O)O)c1 | inactive |
| CCS(=O)(=O)c1ccc2oc(=O)c(/C=C(\O)c3ccc(Cl)cc3)nc2c1 | inactive |
| O=C(NNc1ccccc1)C(=O)NNS(=O)(=O)c1ccc(CCCl)cc1 | inactive |
